Source: US12637424B2, “Pharmaceutical salt of an arylpyrrole derivative” (SENTINEL ONCOLOGY LIMITED, priority 2020, dated 2026)

What was measured:
Experiment in all cases: DiscoverX KinomeScreen competition binding assay (kinase selectivity panel)
[1] = target: T1, panel of ninety-seven kinases (Homo sapiens, UniProt P51812); conditions: RPS6KA3; screened at 3000 nM
T1 construct: purchased DiscoverX; host or cells: E. coli (BL21-derived, T7 phage display) or HEK-293
Method: (§1) This has been investigated by testing atropisomer A-2 for off-target activity against a panel of ninety-seven kinases distributed across the kinome at a concentration of 3 μM using the DiscoverX KinomeScreen assay. The DiscoverX KinomeScreen assay is a site-directed competition binding assay which measures the binding affinity of a compound to a kinase, by use of a solid supported control compound which can bind or capture the kinases in solution. In the absence of a kinase-inhibitor test compound, all of the kinase will bind to the solid support. If a kinase-inhibitor test compound is added to the assay mix, the amount of kinase binding to the solid support will be reduced, the extent of reduction being dependent on the potency of the test compound as a kinase inhibitor. […] For most assays, kinase-tagged T7 phage strains were grown in parallel in 24-well blocks in an E. coli host derived from the BL21 strain. E. coli were grown to log-phase and infected with T7 phage from a frozen stock (multiplicity of infection=0.4) and incubated with shaking at 32° C. until lysis (90-150 minutes). The lysates were centrifuged (6,000×g) and filtered (0.2 μm) to remove cell debris. The remaining kinases were produced in HEK-293 cells and subsequently tagged with DNA for qPCR detection. Streptavidin-coated magnetic beads were treated with biotinylated small molecule ligands for 30 minutes at room temperature to generate affinity resins for kinase assays. The liganded beads were blocked with excess biotin and washed with blocking buffer (SeaBlock (Pierce), 1% BSA, 0.05% Tween 20, 1 mM DTT) to remove unbound ligand and to reduce non-specific phage binding. […] Test compounds were prepared as 40× stocks in 100% DMSO and directly diluted into the assay. All reactions were performed in polypropylene 384-well plates in a final volume of 0.02 ml. […] The beads were then re-suspended in elution buffer (1×PBS, 0.05% Tween 20, 0.5 μM non-biotinylated affinity ligand) and incubated at room temperature with shaking for 30 minutes. The kinase concentration in the eluates was measured by qPCR. Compounds that bind the kinase active site and directly (sterically) or indirectly (allosterically) prevent kinase binding to the immobilized ligand, will reduce the amount of kinase captured on the solid support. […] The strength of binding of the test molecule to the kinase can be expressed as the percent control (% Ctrl) The compound(s) were screened at 3000 nM concentration, and results for primary screen binding interactions are reported as ‘% Ctrl’, where lower numbers indicate stronger hits in the matrix on the following page(s). [formula] • negative control=DMSO (100% Ctrl) • positive control=control compound (0% Ctrl)

[2] = target: T2, panel of ninety-seven kinases (Homo sapiens, UniProt O60674); conditions: JAK2; screened at 3000 nM
T2 construct: purchased DiscoverX; host or cells: E. coli (BL21-derived, T7 phage display) or HEK-293
Method: as §1

[3] = target: T3, panel of ninety-seven kinases (Homo sapiens, UniProt Q15831); conditions: STK11; screened at 3000 nM
T3 construct: purchased DiscoverX; host or cells: E. coli (BL21-derived, T7 phage display) or HEK-293
Method: as §1

[4] = target: T4, panel of ninety-seven kinases (Homo sapiens, UniProt Q13153); conditions: PAK1; screened at 3000 nM
T4 construct: purchased DiscoverX; host or cells: E. coli (BL21-derived, T7 phage display) or HEK-293
Method: as §1

[5] = target: T5, panel of ninety-seven kinases (Homo sapiens, UniProt P29317); conditions: EPHA2; screened at 3000 nM
T5 construct: purchased DiscoverX; host or cells: E. coli (BL21-derived, T7 phage display) or HEK-293
Method: as §1

[6] = target: T6, panel of ninety-seven kinases (Homo sapiens, UniProt Q02156); conditions: PRKCE; screened at 3000 nM
T6 construct: purchased DiscoverX; host or cells: E. coli (BL21-derived, T7 phage display) or HEK-293
Method: as §1

[7] = target: T7, panel of ninety-seven kinases (Homo sapiens, UniProt Q13873); conditions: BMPR2; screened at 3000 nM
T7 construct: purchased DiscoverX; host or cells: E. coli (BL21-derived, T7 phage display) or HEK-293
Method: as §1

[8] = target: T8, panel of ninety-seven kinases (Homo sapiens, UniProt P52333); conditions: JAK3; screened at 3000 nM
T8 construct: purchased DiscoverX; host or cells: E. coli (BL21-derived, T7 phage display) or HEK-293
Method: as §1

[9] = target: T9, panel of ninety-seven kinases (Homo sapiens, UniProt Q86V86); conditions: PIM3; screened at 3000 nM
T9 construct: purchased DiscoverX; host or cells: E. coli (BL21-derived, T7 phage display) or HEK-293
Method: as §1

[10] = target: T10, panel of ninety-seven kinases (Homo sapiens, UniProt Q9BWU1); conditions: CDK19; screened at 3000 nM
T10 construct: purchased DiscoverX; host or cells: E. coli (BL21-derived, T7 phage display) or HEK-293
Method: as §1

[11] = target: T11, panel of ninety-seven kinases (Homo sapiens, UniProt P45983); conditions: MAPK8; screened at 3000 nM
T11 construct: purchased DiscoverX; host or cells: E. coli (BL21-derived, T7 phage display) or HEK-293
Method: as §1

[12] = target: T12, panel of ninety-seven kinases (Homo sapiens, UniProt P31751); conditions: AKT2; screened at 3000 nM
T12 construct: purchased DiscoverX; host or cells: E. coli (BL21-derived, T7 phage display) or HEK-293
Method: as §1

[13] = target: T13, panel of ninety-seven kinases (Homo sapiens, UniProt Q00526); conditions: CDK3; screened at 3000 nM
T13 construct: purchased DiscoverX; host or cells: E. coli (BL21-derived, T7 phage display) or HEK-293
Method: as §1

[14] = target: T14, panel of ninety-seven kinases (Homo sapiens, UniProt O14965); conditions: AURKA; screened at 3000 nM
T14 construct: purchased DiscoverX; host or cells: E. coli (BL21-derived, T7 phage display) or HEK-293
Method: as §1

[15] = target: T15, panel of ninety-seven kinases (Homo sapiens, UniProt P78368); conditions: CSNK1G2; screened at 3000 nM
T15 construct: purchased DiscoverX; host or cells: E. coli (BL21-derived, T7 phage display) or HEK-293
Method: as §1

[16] = target: T16, panel of ninety-seven kinases (Homo sapiens, UniProt Q9BXA7); conditions: TSSK1B; screened at 3000 nM
T16 construct: purchased DiscoverX; host or cells: E. coli (BL21-derived, T7 phage display) or HEK-293
Method: as §1

[17] = target: T17, panel of ninety-seven kinases (Homo sapiens, UniProt Q9HBH9); conditions: MKNK2; screened at 3000 nM
T17 construct: purchased DiscoverX; host or cells: E. coli (BL21-derived, T7 phage display) or HEK-293
Method: as §1

[18] = target: T18, panel of ninety-seven kinases (Homo sapiens, UniProt O96013); conditions: PAK4; screened at 3000 nM
T18 construct: purchased DiscoverX; host or cells: E. coli (BL21-derived, T7 phage display) or HEK-293
Method: as §1

[19] = target: T19, panel of ninety-seven kinases (Homo sapiens, UniProt P04626); conditions: ERBB2; screened at 3000 nM
T19 construct: purchased DiscoverX; host or cells: E. coli (BL21-derived, T7 phage display) or HEK-293
Method: as §1

[20] = target: T20, panel of ninety-seven kinases (Homo sapiens, UniProt P09619); conditions: PDGFRB; screened at 3000 nM
T20 construct: purchased DiscoverX; host or cells: E. coli (BL21-derived, T7 phage display) or HEK-293
Method: as §1

[21] = target: T21, panel of ninety-seven kinases (Homo sapiens, UniProt P36507); conditions: MAP2K2; screened at 3000 nM
T21 construct: purchased DiscoverX; host or cells: E. coli (BL21-derived, T7 phage display) or HEK-293
Method: as §1

[22] = target: T22, panel of ninety-seven kinases (Homo sapiens, UniProt P29597); conditions: TYK2; screened at 3000 nM
T22 construct: purchased DiscoverX; host or cells: E. coli (BL21-derived, T7 phage display) or HEK-293
Method: as §1

T16 sequence (Q9BXA7 whole entry): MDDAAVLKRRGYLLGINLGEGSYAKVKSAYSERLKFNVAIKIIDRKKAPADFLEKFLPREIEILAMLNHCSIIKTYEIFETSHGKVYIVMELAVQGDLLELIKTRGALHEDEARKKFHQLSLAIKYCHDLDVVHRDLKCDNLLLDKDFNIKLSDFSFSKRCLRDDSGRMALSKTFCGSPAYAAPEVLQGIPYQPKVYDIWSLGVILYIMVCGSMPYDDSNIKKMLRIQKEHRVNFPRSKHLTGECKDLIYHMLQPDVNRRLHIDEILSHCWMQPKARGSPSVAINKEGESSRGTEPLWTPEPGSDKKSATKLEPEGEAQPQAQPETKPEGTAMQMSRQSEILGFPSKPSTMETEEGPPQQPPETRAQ
T7 sequence (Q13873 27-1038): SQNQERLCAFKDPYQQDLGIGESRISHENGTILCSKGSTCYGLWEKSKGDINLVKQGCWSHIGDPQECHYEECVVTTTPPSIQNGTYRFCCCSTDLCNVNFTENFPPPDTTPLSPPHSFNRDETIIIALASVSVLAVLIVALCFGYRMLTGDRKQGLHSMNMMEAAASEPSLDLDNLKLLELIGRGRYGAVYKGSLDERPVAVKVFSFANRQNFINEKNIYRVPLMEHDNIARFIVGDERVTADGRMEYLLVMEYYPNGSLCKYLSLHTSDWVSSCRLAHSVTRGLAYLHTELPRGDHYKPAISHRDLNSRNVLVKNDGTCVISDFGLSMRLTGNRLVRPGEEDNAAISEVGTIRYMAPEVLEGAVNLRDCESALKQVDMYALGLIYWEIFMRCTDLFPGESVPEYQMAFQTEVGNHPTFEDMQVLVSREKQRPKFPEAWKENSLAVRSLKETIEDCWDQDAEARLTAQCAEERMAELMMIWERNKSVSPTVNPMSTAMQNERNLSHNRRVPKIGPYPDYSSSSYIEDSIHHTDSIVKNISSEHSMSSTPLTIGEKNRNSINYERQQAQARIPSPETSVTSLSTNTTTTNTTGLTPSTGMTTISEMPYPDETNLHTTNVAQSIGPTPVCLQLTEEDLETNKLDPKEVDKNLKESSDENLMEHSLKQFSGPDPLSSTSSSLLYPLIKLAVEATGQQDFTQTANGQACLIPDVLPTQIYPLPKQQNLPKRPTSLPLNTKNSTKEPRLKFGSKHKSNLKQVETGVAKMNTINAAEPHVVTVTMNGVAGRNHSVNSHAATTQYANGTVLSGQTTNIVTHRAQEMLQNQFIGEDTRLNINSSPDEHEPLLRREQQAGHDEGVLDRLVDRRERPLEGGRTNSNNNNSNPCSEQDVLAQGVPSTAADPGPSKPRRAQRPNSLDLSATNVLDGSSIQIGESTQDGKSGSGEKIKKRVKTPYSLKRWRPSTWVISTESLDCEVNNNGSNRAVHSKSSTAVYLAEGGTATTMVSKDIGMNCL
T14 sequence (O14965 whole entry): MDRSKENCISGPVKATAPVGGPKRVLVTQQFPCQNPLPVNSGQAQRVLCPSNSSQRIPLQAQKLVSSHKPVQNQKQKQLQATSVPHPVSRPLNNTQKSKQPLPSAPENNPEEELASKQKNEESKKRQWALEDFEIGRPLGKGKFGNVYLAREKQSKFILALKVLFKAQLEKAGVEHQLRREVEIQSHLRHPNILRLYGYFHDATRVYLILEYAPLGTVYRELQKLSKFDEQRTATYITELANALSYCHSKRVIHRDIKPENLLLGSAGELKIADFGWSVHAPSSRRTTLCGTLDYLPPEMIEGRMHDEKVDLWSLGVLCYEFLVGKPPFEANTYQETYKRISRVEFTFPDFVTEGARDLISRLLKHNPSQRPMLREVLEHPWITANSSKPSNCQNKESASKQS
T22 sequence (P29597 whole entry): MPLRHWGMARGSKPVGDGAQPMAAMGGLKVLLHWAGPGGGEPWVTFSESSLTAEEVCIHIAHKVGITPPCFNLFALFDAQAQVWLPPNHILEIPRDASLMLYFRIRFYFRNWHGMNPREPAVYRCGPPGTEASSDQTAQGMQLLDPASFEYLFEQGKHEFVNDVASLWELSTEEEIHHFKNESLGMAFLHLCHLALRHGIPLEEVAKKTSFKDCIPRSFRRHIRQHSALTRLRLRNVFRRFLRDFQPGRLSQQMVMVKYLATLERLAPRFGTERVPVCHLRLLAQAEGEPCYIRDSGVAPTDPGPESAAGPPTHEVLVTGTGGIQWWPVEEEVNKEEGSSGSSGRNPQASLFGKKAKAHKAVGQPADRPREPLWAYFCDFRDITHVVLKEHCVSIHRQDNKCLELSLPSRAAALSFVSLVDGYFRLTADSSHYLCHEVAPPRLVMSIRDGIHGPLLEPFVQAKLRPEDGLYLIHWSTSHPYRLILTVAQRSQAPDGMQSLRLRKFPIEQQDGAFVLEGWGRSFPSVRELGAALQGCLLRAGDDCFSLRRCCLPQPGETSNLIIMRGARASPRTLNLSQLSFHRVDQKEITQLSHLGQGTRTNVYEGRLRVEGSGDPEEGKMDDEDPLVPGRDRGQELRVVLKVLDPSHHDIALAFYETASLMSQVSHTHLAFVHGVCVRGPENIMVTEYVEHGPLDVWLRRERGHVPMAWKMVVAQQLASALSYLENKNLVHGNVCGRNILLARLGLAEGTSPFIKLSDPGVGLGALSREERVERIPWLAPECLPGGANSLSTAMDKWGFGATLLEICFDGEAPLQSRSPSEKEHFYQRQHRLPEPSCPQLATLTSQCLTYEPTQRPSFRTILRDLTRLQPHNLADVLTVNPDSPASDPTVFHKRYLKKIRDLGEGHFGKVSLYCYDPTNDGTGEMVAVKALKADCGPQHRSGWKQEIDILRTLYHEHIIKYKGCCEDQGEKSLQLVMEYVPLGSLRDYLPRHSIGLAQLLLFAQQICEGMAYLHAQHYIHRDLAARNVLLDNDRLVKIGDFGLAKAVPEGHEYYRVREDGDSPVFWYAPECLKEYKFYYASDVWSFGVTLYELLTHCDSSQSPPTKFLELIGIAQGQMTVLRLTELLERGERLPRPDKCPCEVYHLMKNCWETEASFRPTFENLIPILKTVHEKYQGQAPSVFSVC
T15 sequence (P78368 whole entry): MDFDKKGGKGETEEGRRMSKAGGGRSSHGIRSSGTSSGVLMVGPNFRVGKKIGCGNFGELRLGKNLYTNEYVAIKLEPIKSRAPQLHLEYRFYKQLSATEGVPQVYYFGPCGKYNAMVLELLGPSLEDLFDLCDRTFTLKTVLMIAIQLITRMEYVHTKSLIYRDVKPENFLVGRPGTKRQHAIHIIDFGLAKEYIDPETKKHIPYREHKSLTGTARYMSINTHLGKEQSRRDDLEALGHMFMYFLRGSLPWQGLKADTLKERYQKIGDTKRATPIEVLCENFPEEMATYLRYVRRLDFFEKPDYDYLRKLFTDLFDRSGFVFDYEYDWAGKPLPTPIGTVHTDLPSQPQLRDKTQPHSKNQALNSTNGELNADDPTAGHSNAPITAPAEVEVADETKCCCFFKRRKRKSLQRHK
T5 sequence (P29317 24-976): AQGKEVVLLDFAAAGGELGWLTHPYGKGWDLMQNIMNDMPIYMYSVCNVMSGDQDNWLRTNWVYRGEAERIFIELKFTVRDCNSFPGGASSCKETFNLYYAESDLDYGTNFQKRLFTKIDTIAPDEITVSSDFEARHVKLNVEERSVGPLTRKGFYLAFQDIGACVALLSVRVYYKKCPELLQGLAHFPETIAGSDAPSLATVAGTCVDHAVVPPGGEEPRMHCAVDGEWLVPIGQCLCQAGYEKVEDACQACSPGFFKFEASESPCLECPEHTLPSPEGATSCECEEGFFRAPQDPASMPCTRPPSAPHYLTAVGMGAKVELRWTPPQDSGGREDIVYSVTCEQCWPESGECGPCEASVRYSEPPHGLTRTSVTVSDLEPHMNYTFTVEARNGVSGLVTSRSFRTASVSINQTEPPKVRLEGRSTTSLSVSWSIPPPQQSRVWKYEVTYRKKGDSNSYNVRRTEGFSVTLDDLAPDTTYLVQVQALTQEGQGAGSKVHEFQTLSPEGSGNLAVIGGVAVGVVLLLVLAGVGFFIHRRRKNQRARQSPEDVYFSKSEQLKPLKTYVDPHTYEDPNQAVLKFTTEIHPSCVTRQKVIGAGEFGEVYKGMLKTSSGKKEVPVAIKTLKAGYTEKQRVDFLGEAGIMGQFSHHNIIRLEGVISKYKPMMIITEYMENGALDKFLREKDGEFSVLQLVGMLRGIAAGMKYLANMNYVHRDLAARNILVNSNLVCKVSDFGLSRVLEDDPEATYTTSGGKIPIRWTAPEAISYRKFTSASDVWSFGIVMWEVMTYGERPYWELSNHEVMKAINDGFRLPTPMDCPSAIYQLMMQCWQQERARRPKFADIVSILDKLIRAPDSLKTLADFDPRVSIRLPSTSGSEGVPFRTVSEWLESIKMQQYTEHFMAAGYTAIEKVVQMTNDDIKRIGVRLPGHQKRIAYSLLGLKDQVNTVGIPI
T13 sequence (Q00526 whole entry): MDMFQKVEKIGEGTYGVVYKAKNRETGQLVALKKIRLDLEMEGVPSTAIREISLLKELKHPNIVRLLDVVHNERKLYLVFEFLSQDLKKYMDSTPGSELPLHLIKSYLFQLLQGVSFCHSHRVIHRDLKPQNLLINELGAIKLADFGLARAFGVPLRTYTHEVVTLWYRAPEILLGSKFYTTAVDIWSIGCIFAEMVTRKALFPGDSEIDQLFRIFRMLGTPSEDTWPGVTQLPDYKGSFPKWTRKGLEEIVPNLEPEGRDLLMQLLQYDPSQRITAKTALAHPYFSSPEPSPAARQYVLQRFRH

For `CN(C)CCNC(=O)c1ccc(-c2ccc(-c3ccc(Cl)cc3)n2-c2ccccc2C(F)(F)F)cc1` (single isomer, unassigned) [Atropisomer A-2], the “% Ctrl @ 3 μM” value [1] was 100 % Ctrl, the “% Ctrl @ 3 μM” value [2] was 80 % Ctrl and the “% Ctrl @ 3 μM” value [3] was 81 % Ctrl. For the same compound, the “% Ctrl @ 3 μM” value [4] was 87 % Ctrl, the “% Ctrl @ 3 μM” value [5] was 100 % Ctrl and the “% Ctrl @ 3 μM” value [6] was 99 % Ctrl. The “% Ctrl @ 3 μM” value [7] was 82 % Ctrl, the “% Ctrl @ 3 μM” value [8] was 100 % Ctrl and the “% Ctrl @ 3 μM” value [9] was 98 % Ctrl. The “% Ctrl @ 3 μM” value [10] was 81 % Ctrl, the “% Ctrl @ 3 μM” value [11] was 77 % Ctrl and the “% Ctrl @ 3 μM” value [12] was 100 % Ctrl. The “% Ctrl @ 3 μM” value [13] was 100 % Ctrl, the “% Ctrl @ 3 μM” value [14] was 98 % Ctrl and the “% Ctrl @ 3 μM” value [15] was 100 % Ctrl. For the same compound, the “% Ctrl @ 3 μM” value [16] was 100 % Ctrl, the “% Ctrl @ 3 μM” value [17] was 85 % Ctrl and the “% Ctrl @ 3 μM” value [18] was 100 % Ctrl. For the same compound, the “% Ctrl @ 3 μM” value [19] was 66 % Ctrl, the “% Ctrl @ 3 μM” value [20] was 100 % Ctrl and the “% Ctrl @ 3 μM” value [21] was 81 % Ctrl. The “% Ctrl @ 3 μM” value [22] was 100 % Ctrl.
